Experimental data: US12319672B2, “Alpha-D-galactopyranoside derivatives” (Idorsia Pharmaceuticals Ltd, priority 2019, dated 2025)
pIC50: −log10 of the molar value.

Tests used:
[1] = biological target: human Gal-1 (hGal-1); test: Competitive binding assay: binding of biotinylated hGal-1 to microplate-adsorbed asialofetuin (ASF); conditions: Activities on hGal-1; mean values of several measurements
Summary of the method: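 For hGal-1, a variant with all six cysteines replaced by serines is preferred. Either galectin, biotinylated at 300-1000 ng/mL, competes with compound for microplate-bound ASF over 3 h at 4° C; peroxidase/ABTS detection gives IC50, averaged.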

[2] = biological target: human Gal-3 (hGal-3) (Homo sapiens (Human), UniProt P17931); test: Competitive binding assay: binding of biotinylated hGal-3 to microplate-adsorbed asialofetuin (ASF); conditions: Activity on hGal-3; mean values of several measurements
Summary of the method: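 Spectrophotometric readout (streptavidin-peroxidase, ABTS) of biotinylated galectin retained on ASF-coated wells. Biotinylated hGal-1 or hGal-3, 300-1000 ng/mL, co-incubated with test compound 3 h at 4° C, then washed. Mean IC50 from repeat runs.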

Sequence of human Gal-1 (hGal-1) (P09382 2-135 limits assumed): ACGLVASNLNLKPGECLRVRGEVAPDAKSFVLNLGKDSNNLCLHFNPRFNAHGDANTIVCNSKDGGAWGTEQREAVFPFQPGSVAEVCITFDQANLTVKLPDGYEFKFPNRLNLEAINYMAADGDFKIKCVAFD
Sequence of human Gal-3 (hGal-3) (P17931 whole entry): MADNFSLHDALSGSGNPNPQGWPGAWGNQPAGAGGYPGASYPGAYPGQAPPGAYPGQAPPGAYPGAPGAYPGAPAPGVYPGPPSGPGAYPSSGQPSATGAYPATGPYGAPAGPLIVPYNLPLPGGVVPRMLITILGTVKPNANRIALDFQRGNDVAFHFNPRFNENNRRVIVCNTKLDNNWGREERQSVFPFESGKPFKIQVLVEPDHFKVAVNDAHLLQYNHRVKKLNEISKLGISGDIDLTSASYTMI

Compound	pIC50 [1]	pIC50 [2]
CO[C@@H]1[C@@H](n2cc(-c3cc(F)c(F)c(F)c3)nn2)[C@@H](O)[C@@H](CO)O[C@@H]1Cc1cc(C(C)(C)C)on1 [Ex 1.63]	5.60	6.47
CC(C)(C)OC(=O)N1CCC(C2=NOC(C[C@H]3O[C@H](CO)[C@H](O)[C@H](n4cc(-c5ccc(Cl)c(Cl)c5)nn4)[C@H]3O)C2)CC1 (some centres unmarked) [Ex 1.107]	6.40	6.96
CO[C@@H]1[C@@H](n2cc(-c3cc(F)c(F)c(F)c3)nn2)[C@@H](O)[C@@H](CO)O[C@@H]1CC1CC(C2CCCCC2)=NO1 (some centres unmarked) [Ex 1.08]	5.06	5.97
CO[C@@H]1[C@@H](n2cc(-c3cc(F)c(F)c(F)c3)nn2)[C@@H](O)[C@@H](CO)O[C@@H]1Cc1cc(C2(F)CC2)no1 [Ex 1.213]	5.81	6.80
OC[C@H]1O[C@H](Cc2cc(C3CCCC3)on2)[C@H](O)[C@@H](n2cc(-c3cc(F)c(F)c(F)c3)nn2)[C@H]1O [Ex 1.57]	4.90	6.40
Cc1ccc(-c2cn([C@H]3[C@@H](O)[C@@H](CO)O[C@H](CC4CC(C5CCN(C(=O)OC(C)(C)C)CC5)=NO4)[C@@H]3O)nn2)c(F)c1F (some centres unmarked) [Ex 1.97]	5.49	7.51
CO[C@@H]1[C@@H](n2cc(-c3ccc(Br)c(F)c3F)nn2)[C@@H](O)[C@@H](CO)O[C@@H]1Cc1cc(C2CCN(C(C)=O)CC2)on1 [Ex 1.164]	5.97	7.42
CO[C@@H]1[C@@H](n2cc(-c3cc(F)c(Cl)c(F)c3)nn2)[C@@H](O)[C@@H](CO)O[C@@H]1Cc1cc(C2CCN(S(C)(=O)=O)CC2)on1 [Ex 1.158]	5.82	7.18
CO[C@@H]1[C@@H](n2cc(-c3ccc(C#N)c(F)c3F)nn2)[C@@H](O)[C@@H](CO)O[C@@H]1Cc1cc(C(C)(C)C)on1 [Ex 1.267]	5.21	6.80
CC(C)(C)OC(=O)N1CCC(C2=NOC(C[C@H]3O[C@H](CO)[C@H](O)[C@H](n4cc(-c5cc(F)c(Cl)c(F)c5)nn4)[C@H]3O)C2)CC1 (some centres unmarked) [Ex 1.101]	5.39	6.74
CO[C@@H]1[C@@H](n2cc(-c3cc(F)c(F)c(F)c3)nn2)[C@@H](O)[C@@H](CO)O[C@@H]1Cc1cc(C(C)(C)C)no1 [Ex 1.206]	5.87	7.08
CO[C@@H]1[C@@H](n2cc(-c3ccc(F)c(F)c3F)nn2)[C@@H](O)[C@@H](CO)O[C@@H]1Cc1cc(C2(C)COC2)no1 [Ex 1.252]	6.55	7.16
CO[C@@H]1[C@@H](n2cc(-c3cc(F)c(F)c(F)c3)nn2)[C@@H](O)[C@@H](CO)O[C@@H]1Cc1cc(C2(C)CCCC2)on1 [Ex 1.272]	5.46	6.60
COc1ccc(C2=NOC(C[C@H]3O[C@H](CO)[C@H](O)[C@H](n4cc(-c5cc(F)c(F)c(F)c5)nn4)[C@H]3O)C2)cc1 (some centres unmarked) [Ex 1.02]	4.27	6.31
CC(C)(C)c1cc(C[C@H]2O[C@H](CO)[C@H](O)[C@H](n3cc(-c4cc(F)c(F)c(F)c4)nn3)[C@H]2O)no1 [Ex 1.51]	5.60	6.82
CO[C@@H]1[C@@H](n2cc(-c3ccc(C)c(F)c3F)nn2)[C@@H](O)[C@@H](CO)O[C@@H]1Cc1cc(C2CCC2)on1 [Ex 1.224]	4.85	7.15
CO[C@@H]1[C@@H](n2cc(-c3cc(F)c(F)c(F)c3)nn2)[C@@H](O)[C@@H](CO)O[C@@H]1Cc1cc(C2(O)CCCC2)on1 [Ex 1.72]	5.29	6.44
CO[C@@H]1[C@@H](n2cc(-c3ccc(C)c(F)c3F)nn2)[C@@H](O)[C@@H](CO)O[C@@H]1Cc1cc(C2(C)CCCC2)no1 [Ex 1.288]	5.24	7.20
CCOC(=O)N1CCC(c2cc(C[C@H]3O[C@H](CO)[C@H](O)[C@H](n4cc(-c5ccc(Br)c(F)c5F)nn4)[C@H]3OC)no2)CC1 [Ex 1.198]	5.44	7.33
OC[C@H]1O[C@H](Cc2cc(C3CCN(c4nccs4)CC3)on2)[C@H](O)[C@@H](n2cc(-c3cc(F)c(F)c(F)c3)nn2)[C@H]1O [Ex 1.87]	5.71	7.10
CO[C@@H]1[C@@H](n2cc(-c3ccc(Cl)c(F)c3F)nn2)[C@@H](O)[C@@H](CO)O[C@@H]1CC1CC(C2CCN(C(=O)OC(C)(C)C)CC2)=NO1 (some centres unmarked) [Ex 1.140]	6.16	7.31
CO[C@@H]1[C@@H](n2cc(-c3ccc(Cl)c(F)c3F)nn2)[C@@H](O)[C@@H](CO)O[C@@H]1Cc1cc(C2(C)COC2)no1 [Ex 1.260]	5.85	7.20
CC(C)(C)OC(=O)N1CCC(C2=NOC(C[C@H]3O[C@H](CO)[C@H](O)[C@H](n4cc(-c5cc(Cl)ccc5Cl)nn4)[C@H]3O)C2)CC1 (some centres unmarked) [Ex 1.105]	5.63	5.77

Continued, values first:

pIC50 [1]	pIC50 [2]	Compound
6.31	7.43	CO[C@@H]1[C@@H](n2cc(-c3cc(F)c(F)c(F)c3)nn2)[C@@H](O)[C@@H](CO)O[C@@H]1Cc1cc(C2CCN(S(C)(=O)=O)CC2)on1 [Example 3.45, (2R,3R,4S,5R,6R)-2-(hydroxymethyl)-5-methoxy-6-((5-(1-(methylsulfonyl)piperidin-4-yl)isoxazol-3-yl)methyl)-4-(4-(3,4,5-trifluorophenyl)-1H-1,2,3-triazol-1-yl)tetrahydro-2H-pyran-3-ol]
6.57	7.60	CO[C@@H]1[C@@H](n2cc(-c3cc(F)c(F)c(F)c3)nn2)[C@@H](O)[C@@H](CO)O[C@@H]1Cc1cn(C2CCN(S(=O)(=O)C(C)C)CC2)nn1 [Example 4.10, (2R,3R,4S,5R,6R)-2-(hydroxymethyl)-6-((1-(1-(isopropylsulfonyl)piperidin-4-yl)-1H-1,2,3-triazol-4-yl)methyl)-5-methoxy-4-(4-(3,4,5-trifluorophenyl)-1H-1,2,3-triazol-1-yl)tetrahydro-2H-pyran-3-ol]
4.98	6.48	CO[C@@H]1[C@@H](n2cc(-c3ccc(C)c(F)c3F)nn2)[C@@H](O)[C@@H](CO)O[C@@H]1Cc1cc(C(C)(O)c2ccccc2)on1 (some centres unmarked) [Ex 1.340]
6.12	7.30	CO[C@@H]1[C@@H](n2cc(-c3cc(F)c(F)c(F)c3)nn2)[C@@H](O)[C@@H](CO)O[C@@H]1Cc1cc(C2CCN(S(=O)(=O)C(C)C)CC2)on1 [Example 3.47, (2R,3R,4S,5R,6R)-2-(hydroxymethyl)-6-((5-(1-(isopropylsulfonyl)piperidin-4-yl)isoxazol-3-yl)methyl)-5-methoxy-4-(4-(3,4,5-trifluorophenyl)-1H-1,2,3-triazol-1-yl)tetrahydro-2H-pyran-3-ol]
5.66	6.96	CC(C)(C)c1cc(C[C@H]2O[C@H](CO)[C@H](O)[C@H](n3cc(-c4cc(F)c(F)c(F)c4)nn3)[C@H]2OCC(=O)N2CCOCC2)no1 [Example 2.28, 2-(((2R,3R,4S,5R,6R)-2-((5-(tert-butyl)isoxazol-3-yl)methyl)-5-hydroxy-6-(hydroxymethyl)-4-(4-(3,4,5-trifluorophenyl)-1H-1,2,3-triazol-1-yl)tetrahydro-2H-pyran-3-yl)oxy)-1-morpholinoethan-1-one]
5.86	6.82	CC(=O)N1CCC(C2=NO[C@H](C[C@H]3O[C@H](CO)[C@H](O)[C@H](n4cc(-c5cc(F)c(F)c(F)c5)nn4)[C@H]3O)C2)CC1 [Example 3.11, 1-(4-((S)-5-(((2R,3R,4R,5R,6R)-3,5-dihydroxy-6-(hydroxymethyl)-4-(4-(3,4,5-trifluorophenyl)-1H-1,2,3-triazol-1-yl)tetrahydro-2H-pyran-2-yl)methyl)-4,5-dihydroisoxazol-3-yl)piperidin-1-yl)ethan-1-one]
5.58	7.12	CO[C@@H]1[C@@H](n2cc(-c3ccc(C)c(F)c3F)nn2)[C@@H](O)[C@@H](CO)O[C@@H]1Cc1cc(C2(C)COC2)on1 [Ex 1.320]
5.95	7.07	CO[C@@H]1[C@@H](n2cc(-c3cc(F)c(F)c(F)c3)nn2)[C@@H](O)[C@@H](CO)O[C@@H]1Cc1cn(C(C)(C)C)nn1 [Example 4.45, (2R,3R,4S,5R,6R)-6-((1-(tert-butyl)-1H-1,2,3-triazol-4-yl)methyl)-2-(hydroxymethyl)-5-methoxy-4-(4-(3,4,5-trifluorophenyl)-1H-1,2,3-triazol-1-yl)tetrahydro-2H-pyran-3-ol]
6.59	6.62	CO[C@@H]1[C@@H](n2cc(-c3cc(F)c(F)c(F)c3)nn2)[C@@H](O)[C@@H](CO)O[C@@H]1CC1CC(c2cc[nH]c(=O)c2)=NO1 (mixture of isomers) [Example 2.06]
6.09	7.08	CO[C@@H]1[C@@H](n2cc(-c3cc(F)c(F)c(F)c3)nn2)[C@@H](O)[C@@H](CO)O[C@@H]1Cc1cc(C2CCN(C(=O)N3CCN(C)CC3)CC2)on1 [Example 3.70, (4-(3-(((2R,3R,4S,5R,6R)-5-hydroxy-6-(hydroxymethyl)-3-methoxy-4-(4-(3,4,5-trifluorophenyl)-1H-1,2,3-triazol-1-yl)tetrahydro-2H-pyran-2-yl)methyl)isoxazol-5-yl)piperidin-1-yl)(4-methylpiperazin-1-yl)methanone]
5.45	5.81	CO[C@@H]1[C@@H](n2cc(-c3cc(F)c(F)c(F)c3)nn2)[C@@H](O)[C@@H](CO)O[C@@H]1CC1CN(c2ccc(OC(F)F)cc2)C(=O)O1 (mixture of isomers) [Example 5.02, (RS)-3-(4-(difluoromethoxy)phenyl)-5-(((2R,3R,4S,5R,6R)-5-hydroxy-6-(hydroxymethyl)-3-methoxy-4-(4-(3,4,5-trifluorophenyl)-1H-1,2,3-triazol-1-yl)tetrahydro-2H-pyran-2-yl)methyl)oxazolidin-2-one]
